Values of other authors as cited in patent US6903092B2, “Naphthamide neurokinin antagonists for use as medicaments” (priority 2000, dated 2005).
Where two headings read alike, the source gives them in different places. Square brackets hold non-standard residues; d marks the D form. Peptide text beside a SMILES is read from it. * marks the point of attachment. Cyclohexanecarbonyl = O=C(C1CCCCC1)*

Assays:
[1] = not given; remark: listed apart in the source
[2] = Vassout et al, Neuropeptides 26/S1: 38, 1994; only at 30 mg/kg bid
[3] = not given; remark: listed apart in the source
Marmoset = conditions: Walsh et al., Psychopharmacology 121: 186-191, 1995
[4] = Vassout et al, Neuropeptides 26/S1: 38, 1994
[5] = Teixeira et al., Eur J Pharmacol 311(1): 7-14, 1996
[6] = Stratton et al., Eur. J. Pharmacol. 250: R11-12, 1993
[7] = Walsh et al., Psychopharmacology 121: 186-191, 1995

| SMILES | Outcome, Elevated plus-maze [1, 5] | Outcome, Light-dark box [3, 6] | Outcome, Light-dark box [3, 7] | Outcome, Marmoset human intruder (Marmoset) | also measured |
| --- | --- | --- | --- | --- | --- |
| Cc1cc(C)cc(C(=O)N2CC[C@H](NCc3ccnc4ccccc34)C[C@H]2Cc2ccccc2)c1 [CGP 49823] |  |  |  |  | Outcome, Social interaction (File, Pharm Bio B 58(3): 747-752, 1997): anxiolytic; Outcome, Social interaction test [4]: anxiolytic; Outcome, Elevated plus-maze [1, 4]: inactive; Outcome, Forced swim test (depression model) [2]: antidepressant |
| CN(Cc1ccccc1)C(=O)[C@H](Cc1ccc2ccccc2c1)NC(=O)[C@@H]1C[C@@H](O)CN1C(=O)c1cn(C)c2ccccc12 [FK888] | anxiolytic |  |  |  |  |
| C[C@H](NC(=O)CNC(=O)C1CCCCC1)C(=O)N[C@H](Cc1c[nH]c2ccccc12)C(=O)N[C@@H](Cc1ccccc1)C(=O)N(C)C [GR100679] (Cyclohexanecarbonyl-GA[dW]F-NMe2) |  | anxiolytic |  |  |  |
| COC1(C[S@@+]([O-])c2ccccc2)CCN(CCc2c[nH]c3ccc(F)cc23)CC1 [GR159897] |  |  | anxiolytic | anxiolytic |  |
| CC(=O)NC1(c2ccccc2)CCN(CC[C@H](CN(C)C(=O)c2ccccc2)c2ccc(Cl)c(Cl)c2)CC1 [SR48968] | anxiolytic | anxiolytic | anxiolytic | anxiolytic |  |
